Measured values reported in ChEMBL document CHEMBL3885861, “Open TG-GATES”.

Species: Rattus norvegicus
Test: Open TG-GATES - Regimen: Single
Assay type: toxicity, organism-based, Sprague-Dawley
Design: regimen Single, gender Male, age 6 weeks
Conditions: in vivo, po, route gavage; for APTT / Bas / Eos / Fbg / Hb / Lym / MCH / MCHC / MCV / Mono / RBC / Ret / WBC: tissue Blood; for KIDNEY_L / KIDNEY_R / KIDNEY_TOTAL: tissue Kidney; for LIVER: tissue Liver; for ALP / ALT / AST / CRE / Ca / Cl / DBIL / GLC / IP / K / LDH / Na / PL / RALB / TBIL / TC / TG / TP / gamma-GTP: tissue Plasma
[1] = 0 mg/kg, 3 h, dose level Control
[2] = 0 mg/kg, 6 h, dose level Control
[3] = 0 mg/kg, 9 h, dose level Control
[4] = 0 mg/kg, 24 h, dose level Control

Compound `O=C1CN(/N=C/c2ccc(-c3ccc([N+](=O)[O-])cc3)o2)C(O)=N1` [DANTROLENE] has a TERMINAL_BW [1] of 200.3 g, an APTT [1] of 16.2 s and a Bas [1] of 0%. The Eos [1] was 1%, the Fbg [1] was 209.6 mg/dL and the Hb [1] was 13.4 g/dL. The Lym [1] was 82.4%, the MCH [1] was 22.9 pg and the MCHC [1] was 34.6%. For the same compound, the MCV [1] was 66.2 fL, the Mono [1] was 5.6% and the RBC [1] was 586.4 x10_4/ul. For the same compound, the Ret [1] was 10.7%, the WBC [1] was 134.1 x10_2/uL and the KIDNEY_L [1] was 1 g. For the same compound, the KIDNEY_R [1] was 1 g, the KIDNEY_TOTAL [1] was 1.9 g and the LIVER [1] was 9.3 g. The ALP [1] was 876.8 IU/L, the ALT [1] was 36.2 IU/L and the AST [1] was 69.2 IU/L. It also gave a CRE [1] of 0.5 mg/dL, a Ca [1] of 10.6 mg/dL and a Cl [1] of 103.8 meq/L. For the same compound, the DBIL [1] was 0.058 mg/dL, the GLC [1] was 194.2 mg/dL and the IP [1] was 8.7 mg/dL. For the same compound, the K [1] was 4.7 meq/L, the LDH [1] was 92.8 IU/L and the Na [1] was 139.6 meq/L. It also gave a PL [1] of 134.8 mg/dL, an RALB [1] of 3.6 g/dL and a TBIL [1] of 0.3 mg/dL. It also gave a TC [1] of 75 mg/dL, a TG [1] of 47 mg/dL and a TP [1] of 5.3 g/dL. It also gave a gamma-GTP [1] of 2.2 IU/L, a TERMINAL_BW [2] of 201.9 g and an APTT [2] of 16.6 s. For the same compound, the Bas [2] was 0%, the Eos [2] was 1% and the Fbg [2] was 205 mg/dL. It also gave a Hb [2] of 13.3 g/dL, a Lym [2] of 77.4% and an MCH [2] of 22.6 pg. It also gave an MCHC [2] of 34.6%, an MCV [2] of 65.4 fL and a Mono [2] of 9.2%. The RBC [2] was 588 x10_4/ul, the Ret [2] was 13.2% and the WBC [2] was 107.2 x10_2/uL. For the same compound, the KIDNEY_L [2] was 1 g, the KIDNEY_R [2] was 0.9 g and the KIDNEY_TOTAL [2] was 1.9 g. The LIVER [2] was 9.3 g, the ALP [2] was 689.6 IU/L and the ALT [2] was 32.6 IU/L. For the same compound, the AST [2] was 59.6 IU/L, the CRE [2] was 0.5 mg/dL and the Ca [2] was 10.5 mg/dL. For the same compound, the Cl [2] was 104.4 meq/L, the DBIL [2] was 0.064 mg/dL and the GLC [2] was 196.4 mg/dL. For the same compound, the IP [2] was 9.5 mg/dL, the K [2] was 4.7 meq/L and the LDH [2] was 82.2 IU/L. The Na [2] was 140 meq/L, the PL [2] was 135.2 mg/dL and the RALB [2] was 3.5 g/dL. For the same compound, the TBIL [2] was 0.3 mg/dL, the TC [2] was 79.8 mg/dL and the TG [2] was 58.2 mg/dL. It also gave a TP [2] of 5.3 g/dL, a gamma-GTP [2] of 1.2 IU/L and a TERMINAL_BW [3] of 195.9 g. The APTT [3] was 17.1 s, the Bas [3] was 0% and the Eos [3] was 1%. It also gave a Fbg [3] of 200.6 mg/dL, a Hb [3] of 13 g/dL and a Lym [3] of 76.4%. It also gave an MCH [3] of 21.5 pg, an MCHC [3] of 33.1% and an MCV [3] of 64.9 fL. It also gave a Mono [3] of 9.8%, an RBC [3] of 605.8 x10_4/ul and a Ret [3] of 10.2%. The WBC [3] was 98.6 x10_2/uL, the KIDNEY_L [3] was 0.9 g and the KIDNEY_R [3] was 0.9 g. The KIDNEY_TOTAL [3] was 1.8 g, the LIVER [3] was 8 g and the ALP [3] was 881.6 IU/L. It also gave an ALT [3] of 33.4 IU/L, an AST [3] of 73.2 IU/L and a CRE [3] of 0.5 mg/dL. The Ca [3] was 10.1 mg/dL, the Cl [3] was 107.6 meq/L and the DBIL [3] was 0.084 mg/dL. It also gave a GLC [3] of 200.2 mg/dL, an IP [3] of 10.4 mg/dL and a K [3] of 4.9 meq/L. It also gave an LDH [3] of 80.2 IU/L, a Na [3] of 140 meq/L and a PL [3] of 127.2 mg/dL. For the same compound, the RALB [3] was 3.6 g/dL, the TBIL [3] was 0.4 mg/dL and the TC [3] was 73.2 mg/dL. It also gave a TG [3] of 21.2 mg/dL, a TP [3] of 5.1 g/dL and a gamma-GTP [3] of 1.6 IU/L. For the same compound, the TERMINAL_BW [4] was 212.6 g, the APTT [4] was 17.5 s and the Bas [4] was 0%. For the same compound, the Eos [4] was 1.2%, the Fbg [4] was 207.4 mg/dL and the Hb [4] was 13.2 g/dL. For the same compound, the Lym [4] was 76.6%, the MCH [4] was 21.9 pg and the MCHC [4] was 33.7%. For the same compound, the MCV [4] was 64.9 fL, the Mono [4] was 9.4% and the RBC [4] was 602.2 x10_4/ul. For the same compound, the Ret [4] was 12.5%, the WBC [4] was 91.9 x10_2/uL and the KIDNEY_L [4] was 1 g. For the same compound, the KIDNEY_R [4] was 1 g, the KIDNEY_TOTAL [4] was 2 g and the LIVER [4] was 10.2 g. It also gave an ALP [4] of 993.6 IU/L, an ALT [4] of 33.8 IU/L and an AST [4] of 63.8 IU/L. It also gave a CRE [4] of 0.5 mg/dL, a Ca [4] of 10.9 mg/dL and a Cl [4] of 105.6 meq/L. For the same compound, the DBIL [4] was 0.012 mg/dL, the GLC [4] was 198.4 mg/dL and the IP [4] was 8 mg/dL. It also gave a K [4] of 4.7 meq/L, an LDH [4] of 80.6 IU/L and a Na [4] of 141.6 meq/L. It also gave a PL [4] of 144.2 mg/dL, an RALB [4] of 3.7 g/dL and a TBIL [4] of 0.4 mg/dL. It also gave a TC [4] of 73.8 mg/dL, a TG [4] of 91.6 mg/dL and a TP [4] of 5.5 g/dL. For the same compound, the gamma-GTP [4] was 1.8 IU/L, the TERMINAL_BW (25 mg/kg, 3 h, dose level Low) was 196.9 g and the APTT (25 mg/kg, 3 h, dose level Low) was 16.9 s.
